From patent US6451844B1, “Use of menthyl-2 pyrrolidone-5-carboxylate as an insect repellent” (Quest International BV, priority 1998, dated 2002)

Tested on: Aedes aegypti
Experiment: Insect repellency test (mosquitoes attempting to bite treated warmed membrane targets)
Type: in vivo
Conditions: for % Repellency initially / % Repellency After 1 Hour: neat compound, 30 microlitres on membrane, 27° C.; for % Repellency initially: 10 minute period directly after application; for % Repellency After 1 Hour: 10 minute period one hour after application
Protocol: Four test chambers were prepared using 300 mm 200 gauge […] tubing. The synthetic plastics tubing was attached to oblong stainless steel frames (150 mm by 150 mm by 900 mm) using double-sided adhesive tape. 200 mm squares of cotton netting were used to cover the ends of the chambers and were secured using adhesive tape. Mosquitoes (naive insects of the species Aedes aegypti, 4 to 7 days old) were introduced into each chamber 8 and the chambers 8 were kept in a separate room until the test was ready to begin. The exhaust fan which vents the room in which the test was performed was switched on. Four targets 5 (only two shown) were prepared as follows: double layers of semi-porous membrane were stretched over the open ends of four open ended glassware bulbs (diameter of open end 43 mm) and secured using elastic bands. Testing was carried out at 27° C. The membranes were kept moist and warmed above the ambient temperature throughout the test by passing a supply of water ([…]) through the glassware bulbs, so as to contact the inner surface of the membranes. […] This was repeated with two other membranes and the fourth membrane was left untreated as a control. The chambers 8 containing the mosquitoes were positioned so that each chamber had one netting end pressed against one of the targets 5. Glass partitions in the form of a cross 6 were used to separate each target 5 and chamber end from its neighbour. […] The separation of the membranes ensured that air passing over a particular membrane would pass through only one test chamber 8. The filters 2, 3 were used to remove volatile elements from the air passing over the mosquitoes; filter 2 contained activated charcoal and filter 3 contained a molecular sieve (Union Carbide type 5A zeolite). The material in each filter 2, 3 was held within the cells of a 25 mm thick sheet of aluminium honeycomb sandwiched between two sheets of stainless steel mesh held in an aluminium frame. The filters 2,3 were bolted by their frames to the inside of an aluminium tunnel such that air passing along the tunnel passed through the filters 2, 3. […] An electronic timer was used to project the date and time onto the screen, and the video recorder 14 was used to record the data. The mosquitoes in the test chambers 8 were activated by introduction of a human breath stimulus upwind of the targets 5 and the number of insects attempting to bite each target 5 over the next ten minute period was recorded. After ten minutes, the recording was stopped and the test chambers 8 removed from their position immediately downwind of the targets 5. […] The numbers of mosquitoes attempting to bite each of the targets 5 was noted every 10 seconds throughout each ten minute recording period. The 60 readings were used to produce a figure for the mean number of insects biting each target 5 during the ten minute test periods. The reading obtained for the untreated target 5 was used to give a measure of the basic avidity of the mosquitoes used in the test and this was taken into account when analysing the results. […] The above lotions were tested for insect repellency using the method outlined in Example 1.

| Compound | % Repellency initially [%] | % Repellency After 1 Hour [%] | insect repellent effectiveness (in words) (compared with hydrolysis product menthol, maintained for at least 1 hour after application to a substrate) |
| --- | --- | --- | --- |
| CCN(CC)C(=O)c1cccc(C)c1 [DEET, N,N-diethyl-m-toluamide] | 93 | 75 | – |
| CC1CCC(C(C)C)C(O)C1 (stereo not shown) [Menthol, menthol] | 49 | 25 | – |
| CC1CCC(C(C)C)C(OC(=O)C2CCC(=O)N2)C1 (stereo not shown) [Menthyl 2-pyrrolidone-5-carboxylate] | 80 | 59 | more effective insect repellent than its hydrolysis product, menthol |
